Test results as given in publication PMC5433425 (PeerJ, 2017).
“And” between values parts separate entries of the source, which are not always exact repeats. Equal values may be shown once.

Tests used:
[1] = system: human monocyte-derived macrophages; assay: Cytotoxicity, AlamarBlue method; type: cell-based; conditions: human, 3 days
Protocol: (§1) The blood was collected from healthy donors and the peripheral blood mononuclear cells were isolated by Ficoll-Paque Plus (GE Healthcare, Freiburg, Germany) density gradient centrifugation as previously described ([Machado et al., 2016]). […] Fresh medium was added at day 4 post isolation. The effect of the compounds on human monocyte-derived macrophages was evaluated using the AlamarBlue method (Molecular Probes, Life Technologies) ([O’Brien et al., 2000]), and by measuring the release of the lactate dehydrogenase (LDH) into the culture supernatants using the Pierce LDH Cytotoxicity Assay (ThermoFisher Scientific, Waltham, MA, USA) ([Chan, Moriwaki & Rosa, 2013]) according to the manufacturer’s instructions. Briefly, 5 × 10^4 cells were seeded in 96-well microplates treated with the compounds, and incubated at 37 °C with 5% CO2. After 72 h of treatment, the cell viability was assessed. For the AlamarBlue method, the dye was added to each well to a final concentration of 10% and incubated overnight at 37 °C and 5% CO2. The fluorescence was measured with a 540/35 excitation filter and a 590/20 emission filter in a Synergy HT multi-mode microplate reader. The release of LDH from damaged cells into culture supernatants, as an indicator of cytotoxicity, was measured in serum-free medium. Here the amount of enzyme activity correlates to the number of damaged cells. The specific lysis was calculated as follows: (treated cells—spontaneous LDH release)/ (maximum LDH release—spontaneous LDH release) ×100.

[2] = system: human monocyte-derived macrophages; assay: Cytotoxicity, LDH release; type: cell-based; conditions: human, 3 days
Protocol: as §1

[3] = system: E. coli K-12 AG100 (wild-type); assay: MIC, broth microdilution; type: cell-based; conditions: Escherichia coli; E. coli AG100 wild-type; read-out: MIC
[4] = system: E. coli AG100tet; assay: EtBr accumulation by real-time fluorometry; conditions: EtBr 2 µg/ml + inhibitor 80 µM
[5] = system: E. coli AG100A; assay: EtBr efflux by real-time fluorometry; conditions: 20 µM
Protocol: Control tubes with only cells and cells with and without 0.4% glucose were included. The fluorescence was measured in a Rotor-Gene 3000 and the data was acquired every 30 s for 30 min at 37 °C. The efflux activity was quantified by comparing the fluorescence data obtained under conditions that promote efflux (presence of glucose and absence of efflux inhibitor) with the data from the control in which the bacteria are under conditions of no efflux (presence of an inhibitor and no energy source).

## CN(C)CCCN1c2ccccc2Sc2ccc(Cl)cc21 [CPZ, chlorpromazine]
[1]
  CC10: 13.36 µM
[2]; 1.25 µM
  LDH release: 0.95%
[2]; 20 µM
  LDH release: 24%
[3]
  MIC: 120 µg/mL and 338 µM
[4]; cycle 1
  EtBr fluorescence: 9.834
[4]; cycle 2
  EtBr fluorescence: 10.8502
[4]; cycle 3
  EtBr fluorescence: 12.3051
[4]; cycle 4
  EtBr fluorescence: 13.857
[4]; cycle 5
  EtBr fluorescence: 15.5494
[4]; cycle 6
  EtBr fluorescence: 17.3058
[4]; cycle 7
  EtBr fluorescence: 19.3992
[4]; cycle 8
  EtBr fluorescence: 20.8092
[4]; cycle 9
  EtBr fluorescence: 23.1444
[4]; cycle 10
  EtBr fluorescence: 25.4323
[4]; cycle 11
  EtBr fluorescence: 27.4946
[4]; cycle 12
  EtBr fluorescence: 29.7214
[4]; cycle 13
  EtBr fluorescence: 31.9876
[4]; cycle 14
  EtBr fluorescence: 34.2074
[4]; cycle 15
  EtBr fluorescence: 36.9702
[4]; cycle 16
  EtBr fluorescence: 39.6127
[4]; cycle 17
  EtBr fluorescence: 42.5123
[4]; cycle 18
  EtBr fluorescence: 45.4508
[4]; cycle 19
  EtBr fluorescence: 48.5847
[4]; cycle 20
  EtBr fluorescence: 50.7436
[4]; cycle 21
  EtBr fluorescence: 54.1808
[4]; cycle 22
  EtBr fluorescence: 57.0724
[4]; cycle 23
  EtBr fluorescence: 59.5808
[4]; cycle 24
  EtBr fluorescence: 63.2028
[4]; cycle 25
  EtBr fluorescence: 66.0088
[4]; cycle 26
  EtBr fluorescence: 69.6637
[4]; cycle 27
  EtBr fluorescence: 72.1
[4]; cycle 28
  EtBr fluorescence: 75.2829
[4]; cycle 29
  EtBr fluorescence: 78.0686
[4]; cycle 30
  EtBr fluorescence: 80.8335
[5]; cycle 1, + glucose
  EtBr fluorescence (Channel Cycling A.530/585hp): 3.827
[5]; cycle 1, without glucose
  EtBr fluorescence (Channel Cycling A.530/585hp): 4.231
[5]; cycle 2, + glucose
  EtBr fluorescence (Channel Cycling A.530/585hp): 3.676
[5]; cycle 2, without glucose
  EtBr fluorescence (Channel Cycling A.530/585hp): 4.204
[5]; cycle 3, + glucose
  EtBr fluorescence (Channel Cycling A.530/585hp): 3.648
[5]; cycle 3, without glucose
  EtBr fluorescence (Channel Cycling A.530/585hp): 4.237
[5]; cycle 4, without glucose
  EtBr fluorescence (Channel Cycling A.530/585hp): 4.314
[5]; cycle 5, without glucose
  EtBr fluorescence (Channel Cycling A.530/585hp): 4.267
[5]; cycle 6, without glucose
  EtBr fluorescence (Channel Cycling A.530/585hp): 4.36
[5]; cycle 7, without glucose
  EtBr fluorescence (Channel Cycling A.530/585hp): 4.4
[5]; cycle 8, without glucose
  EtBr fluorescence (Channel Cycling A.530/585hp): 4.486
[5]; cycle 9, + glucose
  EtBr fluorescence (Channel Cycling A.530/585hp): 3.606
[5]; cycle 9, without glucose
  EtBr fluorescence (Channel Cycling A.530/585hp): 4.551
[5]; cycle 10, + glucose
  EtBr fluorescence (Channel Cycling A.530/585hp): 3.712
[5]; cycle 10, without glucose
  EtBr fluorescence (Channel Cycling A.530/585hp): 4.522
[5]; cycle 11, + glucose
  EtBr fluorescence (Channel Cycling A.530/585hp): 3.667
[5]; cycle 11, without glucose
  EtBr fluorescence (Channel Cycling A.530/585hp): 4.614
[5]; cycle 12, + glucose
  EtBr fluorescence (Channel Cycling A.530/585hp): 3.687
[5]; cycle 12, without glucose
  EtBr fluorescence (Channel Cycling A.530/585hp): 4.652
[5]; cycle 13, + glucose
  EtBr fluorescence (Channel Cycling A.530/585hp): 3.761
[5]; cycle 13, without glucose
  EtBr fluorescence (Channel Cycling A.530/585hp): 4.775
[5]; cycle 14, + glucose
  EtBr fluorescence (Channel Cycling A.530/585hp): 3.711
[5]; cycle 14, without glucose
  EtBr fluorescence (Channel Cycling A.530/585hp): 4.879
[5]; cycle 15, + glucose
  EtBr fluorescence (Channel Cycling A.530/585hp): 3.685
[5]; cycle 15, without glucose
  EtBr fluorescence (Channel Cycling A.530/585hp): 4.89
[5]; cycle 16, + glucose
  EtBr fluorescence (Channel Cycling A.530/585hp): 3.729
[5]; cycle 16, without glucose
  EtBr fluorescence (Channel Cycling A.530/585hp): 4.933
[5]; cycle 17, + glucose
  EtBr fluorescence (Channel Cycling A.530/585hp): 3.749
[5]; cycle 17, without glucose
  EtBr fluorescence (Channel Cycling A.530/585hp): 4.963
[5]; cycle 18, + glucose
  EtBr fluorescence (Channel Cycling A.530/585hp): 3.817
[5]; cycle 18, without glucose
  EtBr fluorescence (Channel Cycling A.530/585hp): 5.023
[5]; cycle 19, + glucose
  EtBr fluorescence (Channel Cycling A.530/585hp): 3.768
[5]; cycle 19, without glucose
  EtBr fluorescence (Channel Cycling A.530/585hp): 5.067
[5]; cycle 20, + glucose
  EtBr fluorescence (Channel Cycling A.530/585hp): 3.821
[5]; cycle 20, without glucose
  EtBr fluorescence (Channel Cycling A.530/585hp): 5.072
[5]; cycle 21, + glucose
  EtBr fluorescence (Channel Cycling A.530/585hp): 3.796
[5]; cycle 21, without glucose
  EtBr fluorescence (Channel Cycling A.530/585hp): 5.224
[5]; cycle 22, + glucose
  EtBr fluorescence (Channel Cycling A.530/585hp): 3.843
[5]; cycle 22, without glucose
  EtBr fluorescence (Channel Cycling A.530/585hp): 5.19
[5]; cycle 23, + glucose
  EtBr fluorescence (Channel Cycling A.530/585hp): 3.825
[5]; cycle 23, without glucose
  EtBr fluorescence (Channel Cycling A.530/585hp): 5.293
[5]; cycle 24, + glucose
  EtBr fluorescence (Channel Cycling A.530/585hp): 3.796
[5]; cycle 24, without glucose
  EtBr fluorescence (Channel Cycling A.530/585hp): 5.381
[5]; cycle 25, + glucose
  EtBr fluorescence (Channel Cycling A.530/585hp): 3.807
[5]; cycle 25, without glucose
  EtBr fluorescence (Channel Cycling A.530/585hp): 5.403
[5]; cycle 26, + glucose
  EtBr fluorescence (Channel Cycling A.530/585hp): 3.836
[5]; cycle 26, without glucose
  EtBr fluorescence (Channel Cycling A.530/585hp): 5.546
[5]; cycle 27, + glucose
  EtBr fluorescence (Channel Cycling A.530/585hp): 3.8908
[5]; cycle 27, without glucose
  EtBr fluorescence (Channel Cycling A.530/585hp): 5.462
[5]; cycle 28, + glucose
  EtBr fluorescence (Channel Cycling A.530/585hp): 3.846
[5]; cycle 28, without glucose
  EtBr fluorescence (Channel Cycling A.530/585hp): 5.551
[5]; cycle 29, + glucose
  EtBr fluorescence (Channel Cycling A.530/585hp): 3.901
[5]; cycle 29, without glucose
  EtBr fluorescence (Channel Cycling A.530/585hp): 5.7035
[5]; cycle 30, + glucose
  EtBr fluorescence (Channel Cycling A.530/585hp): 3.8738
[5]; cycle 30, without glucose
  EtBr fluorescence (Channel Cycling A.530/585hp): 5.804
[5]; cycle 31, + glucose
  EtBr fluorescence (Channel Cycling A.530/585hp): 3.964
[5]; cycle 31, without glucose
  EtBr fluorescence (Channel Cycling A.530/585hp): 5.758
[5]; cycle 32, + glucose
  EtBr fluorescence (Channel Cycling A.530/585hp): 3.895
[5]; cycle 32, without glucose
  EtBr fluorescence (Channel Cycling A.530/585hp): 5.843
[5]; cycle 33, + glucose
  EtBr fluorescence (Channel Cycling A.530/585hp): 3.921
[5]; cycle 33, without glucose
  EtBr fluorescence (Channel Cycling A.530/585hp): 5.872
[5]; cycle 34, + glucose
  EtBr fluorescence (Channel Cycling A.530/585hp): 3.877
[5]; cycle 34, without glucose
  EtBr fluorescence (Channel Cycling A.530/585hp): 5.974
[5]; cycle 35, + glucose
  EtBr fluorescence (Channel Cycling A.530/585hp): 3.838
[5]; cycle 35, without glucose
  EtBr fluorescence (Channel Cycling A.530/585hp): 6.003
[5]; cycle 36, + glucose
  EtBr fluorescence (Channel Cycling A.530/585hp): 3.873
[5]; cycle 36, without glucose
  EtBr fluorescence (Channel Cycling A.530/585hp): 6.052
[5]; cycle 37, + glucose
  EtBr fluorescence (Channel Cycling A.530/585hp): 3.865
[5]; cycle 37, without glucose
  EtBr fluorescence (Channel Cycling A.530/585hp): 6.051
[5]; cycle 38, + glucose
  EtBr fluorescence (Channel Cycling A.530/585hp): 3.927
[5]; cycle 38, without glucose
  EtBr fluorescence (Channel Cycling A.530/585hp): 6.151
[5]; cycle 39, + glucose
  EtBr fluorescence (Channel Cycling A.530/585hp): 3.914
[5]; cycle 39, without glucose
  EtBr fluorescence (Channel Cycling A.530/585hp): 6.208
[5]; cycle 40, + glucose
  EtBr fluorescence (Channel Cycling A.530/585hp): 4.038
[5]; cycle 40, without glucose
  EtBr fluorescence (Channel Cycling A.530/585hp): 6.311
[5]; cycle 41, + glucose
  EtBr fluorescence (Channel Cycling A.530/585hp): 3.929
[5]; cycle 41, without glucose
  EtBr fluorescence (Channel Cycling A.530/585hp): 6.369
[5]; cycle 42, + glucose
  EtBr fluorescence (Channel Cycling A.530/585hp): 3.925
[5]; cycle 42, without glucose
  EtBr fluorescence (Channel Cycling A.530/585hp): 6.396
[5]; cycle 43, + glucose
  EtBr fluorescence (Channel Cycling A.530/585hp): 3.906
[5]; cycle 43, without glucose
  EtBr fluorescence (Channel Cycling A.530/585hp): 6.421
[5]; cycle 44, + glucose
  EtBr fluorescence (Channel Cycling A.530/585hp): 3.836
[5]; cycle 44, without glucose
  EtBr fluorescence (Channel Cycling A.530/585hp): 6.524
[5]; cycle 45, without glucose
  EtBr fluorescence (Channel Cycling A.530/585hp): 6.6507
[5]; cycle 46, without glucose
  EtBr fluorescence (Channel Cycling A.530/585hp): 6.69
[5]; cycle 47, without glucose
  EtBr fluorescence (Channel Cycling A.530/585hp): 6.633
[5]; cycle 48, without glucose
  EtBr fluorescence (Channel Cycling A.530/585hp): 6.748
[5]; cycle 49, without glucose
  EtBr fluorescence (Channel Cycling A.530/585hp): 6.869
[5]; cycle 50, without glucose
  EtBr fluorescence (Channel Cycling A.530/585hp): 6.908
[5]; cycle 51, without glucose
  EtBr fluorescence (Channel Cycling A.530/585hp): 6.927
[5]; cycle 52, without glucose
  EtBr fluorescence (Channel Cycling A.530/585hp): 6.871
[5]; cycle 53, without glucose
  EtBr fluorescence (Channel Cycling A.530/585hp): 6.976
[5]; cycle 54, without glucose
  EtBr fluorescence (Channel Cycling A.530/585hp): 6.9692
[5]; cycle 55, without glucose
  EtBr fluorescence (Channel Cycling A.530/585hp): 7.074
[5]; cycle 56, without glucose
  EtBr fluorescence (Channel Cycling A.530/585hp): 7.021
[5]; cycle 57, without glucose
  EtBr fluorescence (Channel Cycling A.530/585hp): 7.172
[5]; cycle 58, without glucose
  EtBr fluorescence (Channel Cycling A.530/585hp): 7.396
[5]; cycle 59, without glucose
  EtBr fluorescence (Channel Cycling A.530/585hp): 7.291
[5]; cycle 60, without glucose
  EtBr fluorescence (Channel Cycling A.530/585hp): 7.378
[5]; cycle 61, without glucose
  EtBr fluorescence (Channel Cycling A.530/585hp): 7.37
